Measured values as given in ChEMBL document CHEMBL1130943, “Novel inhibitors of alpha 4 beta 1 integrin receptor interactions through library synthesis and screening” (Bioorg Med Chem Lett, 1998).

How the values were obtained:
Type in all cases: protein-complex assay
Integrin alpha-4/beta-1 [1] = target: T1, Integrin alpha-4/beta-1 (Homo sapiens, UniProt P05556+P13612); experiment: Inhibition of alpha4-beta1 integrin connecting segment 1 (CS1) splice variant binding interaction
Target sequence in this assay (P05556 21-798 limits assumed, change not shown): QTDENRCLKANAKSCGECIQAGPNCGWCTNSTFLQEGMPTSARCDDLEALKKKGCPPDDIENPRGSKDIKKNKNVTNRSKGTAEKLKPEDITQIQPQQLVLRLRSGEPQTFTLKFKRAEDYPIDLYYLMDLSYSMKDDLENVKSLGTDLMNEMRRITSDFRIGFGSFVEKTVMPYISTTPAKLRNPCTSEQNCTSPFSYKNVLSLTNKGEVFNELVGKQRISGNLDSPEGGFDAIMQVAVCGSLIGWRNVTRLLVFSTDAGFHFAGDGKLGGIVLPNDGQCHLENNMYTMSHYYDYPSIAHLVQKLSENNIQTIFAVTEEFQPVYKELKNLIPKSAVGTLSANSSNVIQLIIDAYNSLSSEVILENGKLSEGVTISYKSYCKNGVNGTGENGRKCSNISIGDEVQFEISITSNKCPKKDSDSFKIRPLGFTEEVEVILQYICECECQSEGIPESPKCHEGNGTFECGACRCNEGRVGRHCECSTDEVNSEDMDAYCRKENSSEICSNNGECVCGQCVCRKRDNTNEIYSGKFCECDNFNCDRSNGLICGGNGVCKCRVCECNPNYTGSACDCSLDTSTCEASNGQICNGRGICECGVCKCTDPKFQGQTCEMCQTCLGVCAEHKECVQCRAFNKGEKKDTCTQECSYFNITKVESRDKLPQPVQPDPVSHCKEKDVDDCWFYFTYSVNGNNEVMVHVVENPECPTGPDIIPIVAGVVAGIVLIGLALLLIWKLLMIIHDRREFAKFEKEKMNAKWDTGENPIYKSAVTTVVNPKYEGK
Target sequence in this assay (P13612 34-1032 limits assumed, change not shown): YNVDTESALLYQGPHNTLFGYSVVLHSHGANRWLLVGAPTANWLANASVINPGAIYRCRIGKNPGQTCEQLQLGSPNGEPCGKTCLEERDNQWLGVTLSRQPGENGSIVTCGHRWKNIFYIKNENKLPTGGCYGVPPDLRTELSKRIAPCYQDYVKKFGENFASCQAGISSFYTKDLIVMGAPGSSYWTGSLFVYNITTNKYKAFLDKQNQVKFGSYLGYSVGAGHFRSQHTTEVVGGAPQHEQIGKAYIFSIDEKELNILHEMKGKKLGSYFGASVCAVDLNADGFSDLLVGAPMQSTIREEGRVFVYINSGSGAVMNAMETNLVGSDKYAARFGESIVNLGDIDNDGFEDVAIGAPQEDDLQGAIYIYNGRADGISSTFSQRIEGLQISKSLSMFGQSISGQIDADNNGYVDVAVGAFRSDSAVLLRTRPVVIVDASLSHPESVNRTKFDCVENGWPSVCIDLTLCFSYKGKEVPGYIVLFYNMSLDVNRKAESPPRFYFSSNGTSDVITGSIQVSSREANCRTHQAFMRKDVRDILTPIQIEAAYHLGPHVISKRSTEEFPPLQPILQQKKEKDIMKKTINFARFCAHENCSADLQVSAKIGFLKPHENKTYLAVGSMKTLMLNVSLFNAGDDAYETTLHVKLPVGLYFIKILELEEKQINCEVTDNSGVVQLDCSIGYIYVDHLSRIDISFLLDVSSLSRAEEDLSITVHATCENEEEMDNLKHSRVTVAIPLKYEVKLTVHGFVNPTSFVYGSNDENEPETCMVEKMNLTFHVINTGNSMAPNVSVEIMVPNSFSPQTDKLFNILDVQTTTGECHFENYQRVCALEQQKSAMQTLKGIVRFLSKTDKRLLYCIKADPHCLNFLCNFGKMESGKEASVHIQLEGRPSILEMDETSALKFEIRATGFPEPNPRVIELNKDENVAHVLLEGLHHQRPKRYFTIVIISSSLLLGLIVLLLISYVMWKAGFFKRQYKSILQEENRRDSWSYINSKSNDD

Integrin alpha-4/beta-1 [2] = target: T1, Integrin alpha-4/beta-1; experiment: Inhibition of alpha4-beta1 integrin connecting segment 1 (CS1) splice variant binding interaction at 100 uM
Integrin alpha-4/beta-1 [3] = target: T1, Integrin alpha-4/beta-1; experiment: Inhibition of alpha4-beta1 integrin connecting segment 1 (CS1) splice variant binding interaction 100 uM

Row | IC50 (Integrin alpha-4/beta-1 [1]) [µM] | inhibition (Integrin alpha-4/beta-1 [2]) [%] | inhibition (Integrin alpha-4/beta-1 [3]) [%] | Structure (SMILES)
1 | 5 | 100 |  | O=C(O)CCN1CCS[C@H](CC(=O)O)C(=O)N[C@@H](Cc2ccc(O)cc2)C1=O
2 | > 100 | 0 |  | CC(C)CCN1CCS[C@@H](CC(=O)O)C(=O)N[C@@H](Cc2ccccc2)C1=O
3 | > 100 | 41 |  | CCCCN1CCS[C@@H](CC(=O)O)C(=O)N[C@@H](Cc2ccccc2)C1=O
4 | 8 |  | 100 | O=C(O)CCN1CCS[C@@H](CC(=O)O)C(=O)N[C@@H](Cc2ccc(O)cc2)C1=O
